Source: ChEMBL document CHEMBL1132691, “Structure-immunosuppressive activity relationships of new analogues of 15-deoxyspergualin. 2. Structural modifications of the spermidine moiety” (1999)

Tests used:
Mus musculus [1] = test: Tested in vivo against mouse graft-versus-host disease(GVHD) for survival (mean) after daily administration of 0.3 mg/kg (i.p.) using group of 8 mice/dose for 10 days.; assay type: functional; details: route intraperitoneal
Mus musculus [2] = test: Tested in vivo against mouse graft-versus-host disease(GVHD) for survival (mean) after daily administration of 3 mg/kg (i.p.) using group of 8 mice/dose for 10 days.; assay type: functional; details: route intraperitoneal
Rattus norvegicus [3] = test: The compound was tested in vivo against heart transplanted rat for survival (mean) after daily administration of 6 mg/kg(ip) for 10 days.; assay type: functional
Rattus norvegicus [4] = test: The compound was tested in vivo against heart transplanted rat for survival (mean) after daily administration of 2.5 mg/kg(ip) for 10 days.; assay type: functional
Rattus norvegicus [5] = test: The compound was tested in vivo against heart transplanted rat for survival (mean) after daily administration of 6 mg/kg(ip) for 10 days.

NC(N)=NCCCCCCNC(=O)COC(=O)NCCCCNCCC(N)C(F)(F)F (configuration not stated)
Mean survival (Mus musculus [1]): 16 days
Mean survival (Mus musculus [2]): 17 days

C[C@H](N)CCNCCCCNC(=O)CC(=O)NCCCCCCN=C(N)N
Mean survival (Mus musculus [2]): 17 days

NCCCNCCCCNC(=O)CC(=O)NCCCCCCN=C(N)N
Mean survival (Mus musculus [1]): 17 days
Mean survival (Mus musculus [2]): 52 days
Mean survival (Rattus norvegicus [3]): 9 days

CN(CCCN)CCCCNC(=O)CC(=O)NCCCCCCN=C(N)N
Mean survival (Mus musculus [1]): 14 days
Mean survival (Mus musculus [2]): 14 days

CC(N)CCNCCCCNC(=O)OCC(=O)NCCCCCCN=C(N)N (configuration not stated)
Mean survival (Mus musculus [1]): 53 days
Mean survival (Mus musculus [2]): 57 days
Mean survival (Rattus norvegicus [4]): 56 days

N=C(N)NCCCCCCNC(=O)COC(=O)NCCCCNCCCN [TRESPERIMUS]
Mean survival (Mus musculus [1]): 15 days
Mean survival (Mus musculus [2]): 58 days
Mean survival (Rattus norvegicus [4]): 16 days

CC(C)(N)CCNCCCCNC(=O)CC(=O)NCCCCCCN=C(N)N
Mean survival (Mus musculus [1]): 15 days
Mean survival (Mus musculus [2]): 15 days

CC(CCN)NCCCCNC(=O)CC(=O)NCCCCCCN=C(N)N (configuration not stated)
Mean survival (Mus musculus [1]): 11 days
Mean survival (Mus musculus [2]): 12 days

N=C(N)NCCCCCCC(=O)NC(O)C(=O)NCCCCNCCCN (configuration not stated) [GUSPERIMUS]
Mean survival (Rattus norvegicus [5]): 38 days

CC(CN)CNCCCCNC(=O)CC(=O)NCCCCCCN=C(N)N (configuration not stated)
Mean survival (Mus musculus [1]): 18 days
Mean survival (Mus musculus [2]): 18 days

CC(CCCNC(=O)CC(=O)NCCCCCCN=C(N)N)NCCCN (configuration not stated)
Mean survival (Mus musculus [1]): 11 days
Mean survival (Mus musculus [2]): 14 days

CC(CCCNCCCN)NC(=O)CC(=O)NCCCCCCN=C(N)N (configuration not stated)
Mean survival (Mus musculus [2]): 21 days

CC(N)CCNCCCCNC(=O)CC(=O)NCCCCCCN=C(N)N (configuration not stated)
Mean survival (Mus musculus [1]): 17 days
Mean survival (Mus musculus [2]): 60 days
Mean survival (Rattus norvegicus [3]): 24 days

CCC(N)CCNCCCCNC(=O)OCC(=O)NCCCCCCN=C(N)N (configuration not stated)
Mean survival (Mus musculus [1]): 16 days
Mean survival (Mus musculus [2]): 21 days

C[C@@H](N)CCNCCCCNC(=O)CC(=O)NCCCCCCN=C(N)N
Mean survival (Mus musculus [1]): 26 days
Mean survival (Mus musculus [2]): 49 days
Mean survival (Rattus norvegicus [3]): 68 days

C[C@H](N)CCNCCCCNC(=O)OCC(=O)NCCCCCCN=C(N)N
Mean survival (Mus musculus [1]): 16 days
Mean survival (Mus musculus [2]): 25 days
Mean survival (Rattus norvegicus [3]): 9 days

NC(N)=NCCCCCCNC(=O)COC(=O)NCCCCNCCC(N)c1ccccc1 (configuration not stated)
Mean survival (Mus musculus [1]): 15 days
Mean survival (Mus musculus [2]): 15 days

NCCCCNC(=O)OCC(=O)NCCCCCCN=C(N)N
Mean survival (Mus musculus [1]): 14 days
Mean survival (Mus musculus [2]): 14 days

C[C@@H](N)CCNCCCCNC(=O)OCC(=O)NCCCCCCNC(=N)N [ANISPERIMUS]
Mean survival (Mus musculus [1]): 60 days
Mean survival (Mus musculus [2]): 60 days
Mean survival (Rattus norvegicus [4]): 80 days
